# In PMC6826492, “Experimental and Computational Study of the Antioxidative Potential of Novel Nitro and Amino Substituted Benzimidazole/Benzothiazole-2-Carboxamides with Antiproliferative Activity” (Antioxidants, 2019):
# Like-named read-outs stand apart in the source and are kept apart here.
# Key:
# [1] = system: HEK 293 (human embryonic kidney cells); experiment: Cytotoxic activity on non-cancerous cells (MTT assay); format: cell-based; conditions: for IC50: Homo sapiens, HEK293, non-tumor cell line, 72 h incubation, MTT, concentration that causes 50% growth inhibition
# Method: (§1) The experiments were performed on four human cell lines, including HCT 116 (colon carcinoma), H 460 (lung carcinoma), MCF-7 (breast carcinoma), and HEK 293 (human embryonic kidney cells), in line with previously published experimental procedures. Briefly, the cells were grown in DMEM medium with the addition of 10% fetal bovine serum (FBS), 2 mM L-glutamine, 100 U/mL penicillin, and 100 µg/mL streptomycin, and cultured as monolayers at 37 °C in a humidified atmosphere with 5% CO2. Cells were seeded at 2 × 10^3 cells/well in a standard 96-well microtiter plates and left to attach for 24 h. The next day, a test compound was added in five serial 10-fold dilutions. The rate of cell growth was evaluated after 72 h of incubation with MTT assays. The obtained results are expressed as IC50 values, calculated from the concentration-response curve using linear regression analysis by fitting the test concentrations that give PG values above and below the reference value (i.e., 50%). Each test was performed in quadruplicate in at least two individual experiments.
# [2] = system: MCF-7 (breast carcinoma); experiment: Antiproliferative activity in vitro (MTT assay); format: cell-based, human; conditions: 72 h incubation, concentration that causes 50% growth inhibition
# Method: as §1
# [3] = system: HCT 116 (colon carcinoma); experiment: Antiproliferative activity in vitro (MTT assay); format: cell-based, human; conditions: 72 h incubation, concentration that causes 50% growth inhibition, read-out: IC50 HCT116
# Method: as §1
# [4] = system: H 460 (lung carcinoma); experiment: Antiproliferative activity in vitro (MTT assay); format: cell-based, human; conditions: 72 h incubation, concentration that causes 50% growth inhibition
# Method: as §1
# [5] = system: three human cancer cells; experiment: Antiproliferative activity in vitro, range over the tumor cell lines; format: cell-based; conditions: HCT116, MCF-7, H 460
# Method: as §1
# [6] = Ferric reducing/antioxidant power (FRAP assay); format: biochemical; conditions: means ± standard deviation; absorbance at 593 nm
# Method: The FRAP method was carried out according to previously described procedures with some modifications to be compatible with an assay on a 96-well microplate. All tests were done in triplicate, while the obtained results were averaged and reported as Fe^2+ equivalents (Fe^2+ µmol).
# By using the FRAP assay, we investigated the reducing power of investigated systems, which was monitored by the corresponding changes in the absorbance at 593 nm. This method is based on the ability of systems to reduce the ferric tripyridyl triazine complex (TPTZ) to the ferrous state (Fe^2+), which can be seen by an intense blue color. […] Good reducing ability was shown by the trimethoxy substituted benzimidazole-2-carboxamide 14 bearing the amino group (1102.5 ± 14.1 mmolFe^2+/mmolC).
# [7] = DPPH free radical scavenging; format: biochemical; set-up: key to DPPH IC50: –: Very low activity; conditions: after 30 min of incubation with 100 μM DPPH
# Method: The reducing activity of investigated systems was achieved by the DPPH method according to previously described procedures with modifications to assure the use in a 96-well microplate. Briefly, equal volumes of various concentrations of tested molecules (dissolved in DMSO) were added to the solution of DPPH (final concentration 50 µM in absolute ethanol). Ethanol and DMSO were used as control solutions in line with earlier reports.
# [8] = system: HCT116 cell line; experiment: Cellular ROS measurement assay (DCFH-DA, flow cytometry); format: cell-based, human; conditions: HCT116, 10 µM compounds (2 mM H2O2 positive control), 1 h, DCF-DA; *** p < 0.001, ns not significant
# Method: Figure S53. Impact of compounds on cellular ROS production was measured with fluorescent dye DCF-DA in HCT116 cell line, after the treatment with 10 µM compounds for 1h. H 2O2 was used as a positive control. Data presented here are the results of 3 independent measurements, done in duplicates. One-way ANOVA with Tukey’s post-hoc test was used for statistical analysis, ***- p < 0.001. […]
# Human colon carcinoma cell line HCT116 was grown in DMEM medium with the addition of 10% fetal bovine serum (FBS), 2 mM L-glutamine, 100 U/ml penicillin and 100 µg/ml streptomycin, and cultured as monolayers at 37°C in a humidified atmosphere with 5% CO2.
# Cellular ROS measurement assay
# For the cellular ROS measurement assay, 2.5 × 10^4 cells were seeded into 96-well microtiter plates 24h prior to experiment. Next day, cells were trypsinized and incubated in FBS-free DMEM medium with 20 µM DCFH-DA fluorescence dye for 45 minutes. After the incubation, compounds were added without washing and cells were treated with 2 mM H 2O2 as a positive control and 10 µM compounds 8, 14 and 26 for 1 hour. Cells were washed in PBS and DCFH-DA signal was measured by flow cytometry, in FL1 channel. […]
# [9] = system: HCT116 cell line; experiment: Mitochondrial ROS measurement assay (MitoSOX, flow cytometry); format: cell-based, human; conditions: HCT116, 10 µM compounds (3 µM Rotenone positive control), 1 h, *** p < 0.001, ns not significant
# [10] = system: HCT 116 cells; experiment: Antioxidative activity assay in cells (TBHP-induced ROS, DCFH-DA); format: cell-based, human; conditions: 100 µM TBHP + 10 µM compound, 1 h, DCFH-DA fluorescence
# Method: For the antioxidative activity assay, 2.5 × 10^4 cells were seeded into 96-well microtiter plates and left to attach for 24 h. The next day, cells were washed with PBS and incubated in FBS-free DMEM medium with 25 µM DCFH-DA fluorescence dye. After 45 min of incubation, medium was discarded, and cells were washed with PBS. After the washing step, cells were incubated with 100 µM tert-Butyl hydroperoxide (TBHP) alone or in combination with antioxidative agents (50 mM N-Acetyl-L-cysteine—NAC, or 10 µM tested compounds) in PBS, for 1 h at 37 °C. DCFH-DA fluorescence was recorded on a microplate fluorimeter reader (Tecan) with excitation beam of 485 nm, while the emitted fluorescence was collected at 535 nm. All tests were presented as medians of three independent measurements, done in triplicates. One-way ANOVA with Tukey’s post-hoc test was used for statistical analysis, * p < 0.05, ** p < 0.01, *** p < 0.001.
# In order to test the antioxidant activity of selected systems in tumor cells (Figure 1), we treated HCT 116 cells with tert-Butyl hydroperoxide (TBHP), a substance commonly used for inducing oxidative stress in cells and tissues, alone or in a combination with a known antioxidative agent N-Acetyl-L-cysteine (NAC) or tested compounds [35]. We measured the formation of oxidative stress by-products using 2′,7′-dichlorodihydrofluorescein diacetate (DCFH-DA). We selected system 8 showing pronounced antiproliferative/cytotoxic activity, but no antioxidant capacity in DPPH/FRAP assays, 29 showing exceptionally pronounced antioxidative activity in DPPH/FRAP tests, 14 showing negligible antiproliferative but strong antioxidant capacity in both DPPH/FRAP assays, and 26 showing similarly strong antiproliferative and radical trapping activity in DPPH assay, but rather modest reducing power in FRAP assay. None of the compounds influenced the basal level of ROS in the cells. […] On the other hand, no effect was obtained upon treatment with either 8 or 14 (Figure 1). We additionally tested the impact of the selected compounds on cellular and mitochondrial ROS production in HCT 116 cells using fluorescent dyes, DCFH-DA for cellular and MitoSOX for mitochondrial ROS detection (Supplementary Materials, Figures S53 and S54).
# Figure 1 Antioxidative activity of selected systems. HCT 116 cells were treated with the combination of tert-Butyl hydroperoxide (TBHP, 100 uM) and N-Acetyl-L-cysteine (NAC, 50 mM) or tested compounds 8, 14, 26, and 29 (10 µM) for 1 h. The level of reactive oxygen species (ROS) was measured with fluorescent dye 2′,7′-dichlorodihydrofluorescein diacetate (DCFH-DA) using fluorimeter. Treatment with 100 uM TBHP alone was used as a control for ROS induction. Data presented here are the results of three independent measurements, done in triplicates. […]
IC50 [2],IC50 [3],IC50 [4],IC50 [5],IC50 [7],"IC50 ([2]; Homo sapiens, MCF7, 72 h)","IC50 ([3]; Homo sapiens, HCT-116, 72 h)","IC50 ([4]; Homo sapiens, NCI-H460, 72 h)",DPPH IC50 [7],Compound,IC50 [1],FRAP [6],cellular ROS production (significance vs control) [8],lower activity towards HEK293 cells than towards HCT116 cells (times) ([1]; HEK293 vs HCT116),mitochondrial ROS production (significance vs control) [9],ROS levels when oxidative stress was induced [10]
3 ± 0.7 µM,10 ± 8 µM,4 ± 0.1 µM,3 to 10 µM,12 ± 1.1 µM,,,,,"COc1ccccc1C(=O)Nc1nc2ccc(N)cc2s1.Cl [Compound 21, N-(6-aminobenzothiazol-2-yl)-2-methoxybenzamide hydrochloride]",25 ± 1.5 µM,214.3 ± 3.4 mmolFe^2+/mmolC,,,,
,,,0.6 to 2 µM,,1 ± 0.2 µM,0.6 ± 0.03 µM,2 ± 0.2 µM,–,"COc1cc(C(=O)Nc2nc3ccc([N+](=O)[O-])cc3[nH]2)cc(OC)c1OC [Compound 8, 3,4,5-trimethoxy-N-[5(6)-nitrobenzimidazol-2-yl]benzamide]",2 ± 0.5 µM,89.7 ± 6.2 mmolFe^2+/mmolC,ns,≈ 3 times,ns,no effect
